From ChEMBL document CHEMBL1131641, “Indolequinone antitumor agents: relationship between quinone structure and rate of metabolism by recombinant human NQO1” (Bioorg Med Chem Lett, 1998) come the findings set out here.

Structures are written as SMILES.

The species named for one data set is Homo sapiens. The experiment in a line: Metabolism (NADH oxidation) by recombinant human NAD(P)H: quinone oxidoreductase (NQO1) is evaluated. Type of data set: ADME.
Data set [1] is described as follows: Selectivity ratio against NSCLC H460 and NSCLC H596 was evaluated. In kind it is functional. Further details: reference not given here.
In a further data set the test system is NCI-H596. Put plainly: Cytotoxic activity against non-small cell lung cancer cell line (NSCLC) H596 was determined by using MTT colorimetric assay. Type of data set: functional, cell-based. As to conditions: Homo sapiens. On the technique in general: Tetrazolium assays rely on reduction of a dye to a coloured formazan, in cell work by metabolically active cells.

The subject of another data set is NCI-H460. Put plainly: Cytotoxic activity against non-small cell lung cancer cell line (NSCLC) H460 was determined by using MTT colorimetric assay. Type of data set: functional, cell-based. The note with it: Homo sapiens.

On to `Cc1c(CO)c2c(n1C)C(=O)C=C(N(C)C)C2=O`, for which the Metabolism in the data set filed under Homo sapiens amounted to 0.46 µM/min/mg.

With `Cc1c(CO)c2c(n1C)C(=O)C=C(N1CCC1)C2=O`, the Metabolism in the data set filed under Homo sapiens is 0.22 µM/min/mg.

As to `Cc1c(CO)c2c(n1C)C(=O)C=C(N1CCOCC1)C2=O`, the Metabolism in the data set listed under Homo sapiens came to 0.69 µM/min/mg.

Consider `COC1=CC(=O)c2c(cc(C)n2C)C1=O`, for which the Metabolism in the data set listed under Homo sapiens is 5.31 µM/min/mg. Also, in data set [1], the Selectivity ratio was found to be 1.

Regarding `Cc1c(COC(N)=O)c2c(n1C)C(=O)C=C(N1CC1)C2=O`, the Selectivity ratio in data set [1] was 1.6.

As to `COC1=CC(=O)c2c(c(COC(N)=O)c(C)n2C)C1=O`, in data set [1], the Selectivity ratio came out at 0.3.

`Cc1c(CO)c2c(n1C)C(=O)C=C(N1CC1)C2=O`: the Metabolism in the data set listed under Homo sapiens is 3.35 µM/min/mg. Further, in data set [1], the Selectivity ratio came out at 510.

For the compound `COCC/N=C1\C=C(O)c2c(c(CO)c(C)n2C)C1=O`, the Metabolism in the data set listed under Homo sapiens came to 0.1 µM/min/mg.

Turning to `Cc1c(CO)c2c(n1C)C(=O)C=C(CN1CC1)C2=O`, the Metabolism in the data set listed under Homo sapiens turned out to be 2.01 µM/min/mg. Also, the half-maximal inhibitory concentration (IC50) in the data set with NCI-H596 was over 25 µM; in the data set on NCI-H460, 110 nM. In data set [1], the Selectivity ratio was over 220.

Turning to `Cc1cc2c(n1C)C(=O)C=C(N1CC1)C2=O`, the Metabolism in the data set filed under Homo sapiens was found to be 11.6 µM/min/mg. Moreover, the Selectivity ratio in data set [1] is over 26.

With `COC1=CC(=O)c2c(c(C=O)c(C)n2C)C1=O`, the Metabolism in the data set listed under Homo sapiens is 8.78 µM/min/mg.

With `CCOC(=O)c1c2c(n(C)c1C)C(=O)C=C(OC)C2=O`, the Metabolism in the data set listed under Homo sapiens was found to be 14.3 µM/min/mg.

For the compound `C/N=C1\C=C(O)c2c(c(CO)c(C)n2C)C1=O`, in the data set filed under Homo sapiens, the Metabolism came to 0.49 µM/min/mg.

As to `COC1=CC(=O)c2c(c(CO)c(C)n2C)C1=O`, the Metabolism in the data set filed under Homo sapiens was determined as 1.25 µM/min/mg. In addition, the Selectivity ratio in data set [1] came to 1.

As a reminder, the IC50 is the concentration needed to halve the response being measured.
